Measurements: US7586023B1, “Methods of conferring ppo-inhibiting herbicide resistance to plants by gene manipulation” (Sumitomo Chemical Company, Limited, priority 1996, dated 2009)

Experiments:
[1] = system: Chlamydomonas reinhardtii GB-2951; assay: Herbicide resistance test of GB-2951 grown in TAP liquid media with various concentrations of the compounds; assay type: cell-based; details: compared with wild type strain CC-125
Description: Resistance of GB-2951 to several herbicides was tested by growing the strain in TAP liquid media containing various concentration of the compounds, according to the method described by Shibata et al. (Research in Photosynthesis, Vol III, pp. 567-570, Murata ed., c. 1992 by Kluwer Academic Publisher, Dordrecht, Netherlands). […] Moreover, GB-2951 was crossed to wild type strain CC-124 and several sets of tetrads were isolated according to the method as described by Harris (Harris, E. H., The Chlamydomonas Sourcebook, c. 1989 by Academic Press, San Diego, Calif.). All tetrads segregated two herbicide (compound A) sensitive and two herbicide-resistant progeny. In addition, tetrads from a cross of GB-2951 to RS-322, a porphyria herbicide-resistant isolate from a cross of RS-3 and CC-124, yielded no herbicide-sensitive progeny.

[2] = system: E. coli strains with a cDNA encoding a herbicide-resistant PPO (resistant transformants); assay: Colony formation of herbicide-resistant E. coli SASX38 transformants on LB+ampicillin agar with compound; assay type: cell-based; details: same concentration of Compound A, compared to medium free of Compound A
Text: (§1) The plasmid vector containing the cDNA encoding a herbicide-sensitive PPO enzyme obtained in Example 2 or 9 is introduced into the mutant SASX38 strain of E. coli in which the endogenous the PPO gene (hemG locus) is deleted and herbicide-sensitive transformants are selected by the method in Example 2. Similarly, a cDNA encoding a herbicide-resistant PPO is obtained according to the method in Example 12, with a base pair alteration at the position of Val13 in SEQ. ID. NO.: 1, SEQ. ID. NO.: 2 and SEQ. ID. NO.: 3 resulting in the substitution of methionine for valine. Said cDNA is re-cloned in the plasmid vector pUC118 (Nishimura et al., J. Biol. Chem. 270: 8076 (1995)), and said plasmid vector is introduced into E. coli SASX38 to obtain herbicide-resistant transformants. Both sensitive and resistant transformants are separately plated on LB+ ampicillin agar medium supplemented with compound A at a given concentration, and incubated for two days. Colony formation is then evaluated to assess the growth of the sensitive and resistant transformants in the presence of the herbicide. […]

[3] = system: E. coli strains with the cDNA encoding a herbicide-sensitive PPO (sensitive transformants); assay: Colony formation of herbicide-sensitive E. coli SASX38 transformants on LB+ampicillin agar with compound; assay type: cell-based; details: particular concentration of Compound A, two days, compared to medium lacking Compound A
Text: as §1

[4] = system: crop plants transformed with the herbicide-resistant PPO gene; assay: Weed control test, crop phytotoxicity in greenhouse; assay type: in vivo; details: 100 g/ha; either method (soil surface after sowing, 27 days; sprayed onto plants at 18 days, 20 days)
Description: (§2) Flats with an area of 33×23 cm^2 and a depth of 11 cm are filled with upland field soil. Seeds of crop plants with herbicide-resistant PPO genes developed according to methods similar to those described in Example 16 are planted along with those of weeds such as Echinochloa crus-galli, Abutilon theophrasti and Ipomoea hederacea, and covered with 1-2 cm soil. Compounds of formulae 20 and 22 (wherein R is an ethyl group) of an amount of equivalent to 100 g/ha are dissolved in 20 volumes of a mixture of surfactant and liquid carrier, such as a mixture of calcium dodecylbenzenesulfonate/polyoxyethylene styrylphenyl ether/xylene/cyclohexanone=1:2:4:8 (v/v), and diluted with water of a volume equivalent to 10 L/ha, then sprayed on surface of the soil immediately after sowing. Test plants are grown in a greenhouse for 27 days after treatment to observe weed control activity and crop phytotoxicity of the test compounds.
Seeds of the aforementioned crop plants with herbicide-resistant PPO genes are planted along with those of weeds such as Echinochloa crus-galli, Abutilon theophrasti and Ipomoea hederacea, covered with soil of 1-2 cm deep, and the plants grown for 18 days in the greenhouse. […]

Abutilon theophrasti = assay: Weed control test in greenhouse; assay type: in vivo; details: 100 g/ha; either method (soil surface after sowing, 27 days; sprayed onto plants at 18 days, 20 days)
Description: as §2
(§3) Seeds of the aforementioned crop plants with herbicide-resistant PPO genes are planted along with those of weeds such as Echinochloa crus-galli, Abutilon theophrasti and Ipomoea hederacea, covered with soil of 1-2 cm deep, and the plants grown for 18 days in the greenhouse. Compounds of formulae 20 and 22 (wherein R is an ethyl group) of an amount of equivalent to 100 g/ha are dissolved in 20 volumes of a mixture of surfactant and liquid carrier, such as the mixture of calcium dodecylbenzenesulfonate/polyoxyethylene styrylphenyl ether/xylene/cyclohexanone=1:2:4:8 (v/v), and diluted with water of a volume equivalent to 10 L/ha, then sprayed onto plants from the above. Test plants are grown in a greenhouse for 20 days after treatment for observation of weed control activity and crop phytotoxicity by test compounds.

Ipomoea hederacea = assay: Weed control test in greenhouse; assay type: in vivo; details: 100 g/ha; either method (soil surface after sowing, 27 days; sprayed onto plants at 18 days, 20 days)
Description: as §2, §3

Echinochloa crus-galli = assay: Weed control test in greenhouse; assay type: in vivo; details: 100 g/ha; either method (soil surface after sowing, 27 days; sprayed onto plants at 18 days, 20 days)
Description: as §2, §3

## C#CCOc1cc(N2C(=O)C3=C(CCCC3)C2=O)c(F)cc1Cl [compound A, [N-(4-chloro-2-fluoro-5-propargyloxy)phenyl-]3,4,5,6-tetrahydrophthalimide]
[1]
  resistance or sensitivity of GB-2951 to the herbicide: showed resistance
[2]
  growth of resistant transformants: same level of growth
[3]
  growth of sensitive transformants: strongly suppressed

## CC(C)OC(=O)c1cc(-n2c(=O)cc(C(F)(F)F)n(C)c2=O)ccc1Cl [formula 20]
[4]
  crop phytotoxicity: no significant phytotoxicity
Abutilon theophrasti
  weed control activity (growth): inhibited
Ipomoea hederacea
  weed control activity (growth): inhibited
Echinochloa crus-galli
  weed control activity (growth): inhibited

## C[n+]1ccc(-c2cc[n+](C)cc2)cc1 [paraquat]
[1]
  resistance or sensitivity of GB-2951 to the herbicide: as sensitive

## CN(C)C(=O)Nc1ccc(Cl)c(Cl)c1 [diuron]
[1]
  resistance or sensitivity of GB-2951 to the herbicide: as sensitive

## COC(=O)c1cc(Oc2ccc(C(F)(F)F)cc2Cl)ccc1[N+](=O)[O-] [acifluorfen-methyl]
[1]
  resistance or sensitivity of GB-2951 to the herbicide: showed resistance
